Reference: patent US20220362168A1, “ADMINISTRATION REGIMES OF CANNABINOIDS IN COMBINATION WITH CHEMOTHERAPEUTICS AGAINST CANCER” (priority 2019, published 2022)
“Also recorded” adds a separate entry of the source.

How the values were obtained:
cancer patients = experiment: Clinical outcome of 119 cancer patients given synthetic pharmaceutical-grade CBD; format: in vivo, human; conditions: for Extended median survival / Stable disease / Died / No effect/result / Slowed progression / Tumour free: number of patients
Procedure: Patients were given synthetic, pharmaceutical-grade CBD (STI Pharmaceuticals), registered under the Pharmaceutical Specials scheme in oily drops at 5% (w/v) in 20 ml bottles. Each drop contained 1 mg of synthetic CBD in neutral oil. This was prescribed on an informed consent basis. 119 cancer patients decided to have this treatment (Table 1), and most of them had metastatic cancers. Of the 119 patients, 28 were given CBD as the only treatment.
(§1) The majority of the patients were assessed using a circulating tumour cell test before and after treatment, since this is cheaper than carrying out repeated scans. A number of patients however, as a matter of a normal treatment course, had relevant scans.
The average dose was 10 mg twice a day. For increased tumour mass, the dose was increased, in some cases up to 30 drops twice a day (30 mg). In a number of cases where stable disease was present, the dose was reduced to five drops twice a day (5 mg). In some cases, Sativex, which is licensed for use in multiple sclerosis, was used in conjunction with CBD as a source of THC, which synergises with CBD. A fraction of the dose used for multiple sclerosis was used. […] Some of the patients reverted to Cannabis oil bought on the Internet, and following this, 80% of these cases relapsed.
(§2) The minimum duration of treatment required for CBD was six months, but many continued for longer. Less than six months appeared inadequate and had little effect, and therefore cases in which CBD was used for less than six months have been defined as un-assessable, and not included in the current cohort of 119 cases.

[1] = system: circulating tumour cells (CTCs); experiment: Circulating tumour cell test before and after treatment; format: in vivo, human; conditions: for Circulating tumour cells (CTCs): CBD only
Procedure: as §1

[2] = Side effects / tolerated dose in patients; format: in vivo, human; conditions: cancer patients, up to 30 mg twice a day; maximum tolerated dose unable to be defined
Excerpt: as §2

pERK = pERK western blotting relative to GAPDH (Example 3); format: cell-based; conditions: 100 nM, 1 μM or 10 μM, 48 h, FIG. 2, higher levels of CBD
Procedure: An adenocarcinoma cell line, growing exponentially, was reset at a concentration of 1×10^4/ml and allowed to adhere overnight. Cannabidiol (CBD) was added at 100 nM, 1 μM, or 10 μM, and cells were harvested for standard western blotting techniques after 48 h. Immunoprobing was performed using anti-pERK antibodies, and the densities of each band determined. These values were then expressed relative to a GAPDH loading control.

[3] = system: adenocarcinoma cancer cell line; experiment: Cell viability by cell counting with trypan blue (Example 2); format: cell-based; conditions: 0.1, 1 or 10 μM, 48 h, FIG. 1
Excerpt: An adenocarcinoma cancer cell line, growing exponentially, was reset at a concentration of 1×10^4/ml and allowed to adhere overnight.

tumour = experiment: Scans and examination of tumour in individual patients; format: in vivo, human
Procedure: as §1
Clear objective evidence of potential efficacy was sought where no other treatment option was available. The most impressive case was a patient with an anaplastic ependymoma, a very rare brain tumour. The patient had had all standard treatments, surgery on two occasions followed by chemotherapy and conformal photon radiotherapy. No further treatment options were available to them when treatment on CBD started.
Another impressive case was a patient with progressive tanycytic ependymoma Grade 2, treated with biopsy and radical radiotherapy for two years. They refused chemotherapy, and had no further treatment options. They started on pharmaceutical-grade synthetic CBD a year after radiotherapy ended, at a dose of 10 drops twice a day, three days on and three days off (10 mg). Prior to this they had been taking, for some time, metformin, mebendazole, doxycycline and atorvastatin from an oncology clinic in Central London.
At that point the patient stopped taking pharmaceutical-grade synthetic CBD and switched to Cannabis oil extract obtained from an internet website. […] They have since restarted pharmaceutical-grade synthetic CBD and throughout continued to take the metformin, atorvastatin, doxycycline and mebendazole. So, the only change had been stopping the pharmaceutical-grade synthetic CBD and switching to Cannabis oil extract obtained on the Internet.

[4] = Glioblastoma multiforme, 7 total cases
[5] = Miscellaneous cancers, 15 total cases
[6] = Non-Hodgkin's lymphoma, 8 total cases
[7] = Non-small cell lung, 2 total cases
[8] = Total of all cancer types, 119 total cases

With `C=C(C)[C@@H]1CCC(C)=C[C@H]1c1c(O)cc(CCCCC)cc1O` [CBD, cannabidiol] the Clinical status (cancer patients; 62/female breast cancer, CBD only, no symptoms) was “currently stable”, the Time to death (cancer patients; 65/female oesophageal cancer, CBD only treatment, expected survival of three months) was “weight. They died 14 months later” and the Clinical condition (cancer patients; 65/female oesophageal cancer, CBD only treatment, six months later, regained weight) was “treatments and investigations. We last saw their six months later when they were looking well and had in fact regained”. It also gave an Extended median survival (cancer patients; Anaplastic ependymoma, 3 total cases) of 3, an Extended median survival (cancer patients; Bladder, 2 total cases) of 1 and a Stable disease (cancer patients; Bladder, 2 total cases) of 1. It also gave a Died (cancer patients; Breast, 39 total cases) of 6, an Extended median survival (cancer patients; Breast, 39 total cases) of 8 and a No effect/result (cancer patients; Breast, 39 total cases) of 3. The Slowed progression (cancer patients; Breast, 39 total cases) was 3, the Stable disease (cancer patients; Breast, 39 total cases) was 21 and the Tumour free (cancer patients; Breast, 39 total cases) was 7. The “Effect of short treatment duration” value (cancer patients; CBD used for less than six months) was “little effect”, the Died (cancer patients; Colorectal, 13 total cases) was 6 and the Extended median survival (cancer patients; Colorectal, 13 total cases) was 9. The No effect/result (cancer patients; Colorectal, 13 total cases) was 1, the Slowed progression (cancer patients; Colorectal, 13 total cases) was 1 and the Tumour free (cancer patients; Colorectal, 13 total cases) was 1. For the same compound, the Extended median survival (cancer patients; DIPG, 1 total case) was 1, the Died (cancer patients; [4]) was 3 and the Extended median survival (cancer patients; [4]) was 4. The Tumour free (cancer patients; Head and Neck, 2 total cases) was 1, the Died (cancer patients; [5]) was 1 and the Extended median survival (cancer patients; [5]) was 5. For the same compound, the No effect/result (cancer patients; [5]) was 1, the Slowed progression (cancer patients; [5]) was 1 and the Stable disease (cancer patients; [5]) was 6. It also gave a Tumour free (cancer patients; [5]) of 2, a Stable disease (cancer patients; Neuroendocrine, 1 total case) of 1 and a Died (cancer patients; [6]) of 1. The Stable disease (cancer patients; [6]) was 6, the Tumour free (cancer patients; [6]) was 1 and the Died (cancer patients; [7]) was 2. It also gave an Extended median survival (cancer patients; [7]) of 2, a Died (cancer patients; Ovarian, 6 total cases) of 3 and an Extended median survival (cancer patients; Ovarian, 6 total cases) of 5. It also gave a Slowed progression (cancer patients; Ovarian, 6 total cases) of 1, a Died (cancer patients; Pancreatic, 4 total cases) of 2 and an Extended median survival (cancer patients; Pancreatic, 4 total cases) of 2. For the same compound, the Died (cancer patients; Prostate, 16 total cases) was 3, the Extended median survival (cancer patients; Prostate, 16 total cases) was 3 and the Stable disease (cancer patients; Prostate, 16 total cases) was 10. The Died (cancer patients; [8]) was 27, the Extended median survival (cancer patients; [8]) was 43 and the No effect/result (cancer patients; [8]) was 5. For the same compound, the Slowed progression (cancer patients; [8]) was 8, the Stable disease (cancer patients; [8]) was 45 and the Tumour free (cancer patients; [8]) was 12. The “Clinical effectiveness of dosing pattern” value (cancer patients; three days on and three days off versus continuous dose) was “more effective”, the “Circulating tumour cells (CTCs), first tests” value ([1]; 62/female breast cancer, CBD as only treatment, when first seen) was “tests which showed 10.6 cells per 7.5 ml. Subsequent tests 9 months later, 12 months later, two years later and” and the “Circulating tumour cells (CTCs)” value ([1]; 62/female breast cancer, 9 months later) was 7.3 cells/7.5 ml. The “Circulating tumour cells (CTCs)” value ([1]; 62/female breast cancer, 12 months later) was 6.8 cells/7.5 ml, the “Circulating tumour cells (CTCs)” value ([1]; 67/female lobular breast cancer, 12 months later) was 7.5 cells/7.5 ml and the “Circulating tumour cells (CTCs)” value ([1]; 67/female lobular breast cancer, 18 months later) was 6.8 cells/7.5 ml. The “Circulating tumour cells (CTCs)” value ([1]; 67/female lobular breast cancer, 30 months later) was 3.0 cells/7.5 ml, the “Circulating tumour cells (CTCs), initial” value ([1]; 67/female lobular breast cancer, initial) was “method of treatment. Initial CTCs were 9.3 cells per 7.5 ml. Follow-up measurements 12 months later, 18 months” and the “Circulating tumour cells (CTCs), initial” value ([1]; 72/male prostate cancer, initial value before CBD effect) was 8.1 cells/7.5 ml. For the same compound, the “Circulating tumour cells (CTCs)” value ([1]; breast cancer, three years later) was 3.9 cells/7.5 ml, the “Circulating tumour cells (CTCs)” value ([1]; breast cancer, two years later) was 5.0 cells/7.5 ml and the “Circulating tumour cells (CTCs), first reduction” value ([1]; patient prostate cancer, CBD alone 10 mg twice a day, three days on/off) was 5.9 cells/7.5 ml. For the same compound, the Side effects [2] was “complete absence of side effects”, the “pERK relative to controls” value (pERK) was “increased” and the “Viability of cancer cells” value [3] was “inactive; also recorded: unaffected”. The “Tumour diameter in left breast” value (tumour; 65/female breast cancer, initially 15 cm, CBD plus half course of radiotherapy, last appointment) was “treatment course. They have continued on CBD alone and on their last appointment the tumour in their left breast was 2 cm”, the Axillary nodes (tumour; 65/female breast cancer, initially palpable left axillary nodes, last appointment) was “cm in diameter, with no palpable axillary nodes” and the Subsequent scans (tumour; 68/female breast cancer with bone metastases, CBD following local radiotherapy) was “subsequent scans showed stable disease. They have had no treatment other than CBD following radiotherapy”. The Subsequent scans (tumour; person, anaplastic ependymoma, CBD only treatment) was “disease stability”, the “Decrease of tumour volume (scan)” value (tumour; person, anaplastic ependymoma, CBD only treatment, after ten months) was about 60% and the Scan result (tumour; person, tanycytic ependymoma Grade 2, 10 mg twice a day three days on/off, six months) was “tumour reduction”.
